According to patent US5733927A, “Salts of glucopyranose derivative and solutions of the same” (Ono Pharmaceutical Co., Ltd., priority 1992, dated 1998):
≈ marks a conversion by molar mass, not a printed value. Where a name gives a salt, the structure may show the parent alone.

Columns and labels:
[1] = Solubility in a mixture of water-ethanol (1:1) at 25° C. (Table 1); assay type: physicochemical
[2] = Solubility for injectable solvents / the solvent for the administration (stated in words); assay type: physicochemical; details: for solubility for the solvent for the administration: compared with the mixture of salts of the formula (B) and calcium salt
[3] = Pharmacological activity (lipid A-like activity; stated in words, no test described); details: sufficiency for use as a pharmaceutical agent

Row | Solubility [1] [mg/mL] | solubility for the solvent for the administration [2] | solubility for injectable solvents ([2]; injectable solvents) | SMILES | pharmacological activity [3]
1 | 1.5 | – | – | CCCCCCCCCCC[C@@H](CC(=O)N[C@H]1C(O)O[C@H](CO)[C@@H](OS(=O)(=O)O)[C@@H]1OC(=O)CCCCCCCCc1ccccc1)OC(=O)CCCCCCCCc1ccccc1 (mixture of isomers) [Reference example 5, mixture salt of calcium, sodium and magnesium of 2-deoxy-2-[(3S)-(9-phenylnonanoyloxy)tetradecanoyl]amino-3-O-(9-phenylnonanoyl)-4-O-sulfo-D-glucopyranose, reference compound] | –
2 | 212 (≈ 231 mM) | very good solubility | – | CCCCCCCCCCC[C@@H](CC(=O)N[C@H]1C(O)O[C@H](CO)[C@@H](OS(=O)(=O)O)[C@@H]1OC(=O)CCCCCCCCc1ccccc1)OC(=O)CCCCCCCCc1ccccc1 (single isomer, unassigned) [Example 3] | –
3 | > 270 | very good solubility | – | CCCCCCCCCCC[C@@H](CC(=O)N[C@H]1C(O)O[C@H](CO)[C@@H](OS(=O)(=O)O)[C@@H]1OC(=O)CCCCCCCCc1ccccc1)OC(=O)CCCCCCCCc1ccccc1 (single isomer, unassigned) [Example 4] | –
4 | – | – | very poor | CCCCCCCCCCC[C@@H](CC(=O)N[C@H]1C(O)O[C@H](CO)[C@@H](OS(=O)(=O)O)[C@@H]1OC(=O)CCCCCCCCc1ccccc1)OC(=O)CCCCCCCCc1ccccc1 (stereo partly drawn) [formula (Aa), 2-Deoxy-2-[(3S)-(9-phenylnonanoyloxy)tetradecanoyl]amino-3-O-(9-phenylnonanoyl)-4-O-sulfo-D-glucopyranose, reference compound] | sufficient pharmacological activity
